Measurements as given in the supplement of paper PMC10331698.
± gives the standard deviation of the averaged measurements.

Assays:
Assay in all cases: level (log10 ratio to DMSO vehicle control); higher = higher biomarker level / cell amount than vehicle control
Details in all cases: in DMSO
[1] = compound: COC(=O)C(F)(F)C(F)(F)OC(F)(C(F)(F)F)C(F)(F)OC(F)=C(F)F [Methyl perfluoro(3-(1-ethenyloxypropan-2-yloxy)propanoate)]
Method: (§1)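 BioMAP Diversity Plus panel of 12 human primary cell co-culture systems (3C, 4H, LPS, SAg, BT, BF4T, BE3C, CASM3C, HDF3CGF, KF3CT, MyoF, Mphg). Compounds were added 1 h before stimulation and left for 24 h (MyoF 48 h; BT 72 h for soluble read-outs or 6 d for IgG). Biomarkers were read by ELISA, cytotoxicity by SRB, PBMC viability and proliferation by Alamar Blue. Each well value was divided by the mean of 8 DMSO control wells on the same plate and log10 transformed; duplicate blinded samples were tested at 4 concentrations.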

[2] = compound: NC(=O)C(F)(F)C(F)(F)C(F)(F)C(F)(F)F [Nonafluoropentanamide]
Method: as §1

[3] = compound: O=C(O)C=CC(F)(C(F)(F)F)C(F)(F)F [3-(Perfluoroisopropyl)-2-propenoic acid]
Method: as §1

[4] = compound: O=S(=O)(F)C(F)(F)C(F)(F)C(F)(F)C(F)(F)C(F)(F)C(F)(F)C(F)(F)C(F)(F)F [Perfluorooctanesulfonyl fluoride]
Method: as §1

[5] = compound: O=S(=O)(O)C(F)(F)C(F)(F)C(F)(F)C(F)(F)C(F)(F)C(F)(F)C(F)(F)C(F)(F)C(F)(F)C(F)(F)F [Sodium perfluorodecanesulfonate]
Method: as §1

[6] = compound: OCC(F)(F)C(F)(F)C(F)(F)CO [Hexafluoroamylene glycol]
Method: as §1

Test System | level (log10) ([1]; 6700 nM) | level (log10) ([1]; 20000 nM) | level (log10) ([2]; 6700 nM) | level (log10) ([2]; 20000 nM) | level (log10) ([2]; 60000 nM) | level (log10) ([3]; 6700 nM) | level (log10) ([3]; 20000 nM) | level (log10) ([3]; 60000 nM) | level (log10) ([4]; 6700 nM) | level (log10) ([4]; 20000 nM) | level (log10) ([4]; 60000 nM) | level (log10) ([5]; 1500 nM) | level (log10) ([5]; 4400 nM) | level (log10) ([5]; 13000 nM) | level (log10) ([5]; 40000 nM) | level (log10) ([6]; 6700 nM) | level (log10) ([6]; 20000 nM) | level (log10) ([6]; 60000 nM)
MyoF:PAI-I | 0.0105 ± 0.0035 | 0.0315 ± 0.0078 | 0.006 ± 0.011 | 0.012 ± 0.0057 | 0.021 ± 0.0014 | 0.0125 ± 0.0078 | 0.007 ± 0.0099 | 0.009 ± 0.0014 | -0.0045 ± 0.0035 | -0.0015 ± 0.00071 | 0.006 ± 0.0099 | 0.019 ± 0.02 | 0.0335 ± 0.029 | 0.0505 ± 0.0035 | 0.063 ± 0.0085 | -0.0045 ± 0.0064 | -0.0105 ± 0.00071 | 0.01 ± 0.011
MyoF:SRB | 0.004 ± 0.0042 | 0.018 ± 0.0099 | -0.003 ± 0.0085 | 0.009 ± 0.0085 | 0.005 ± 0.016 | -0.005 ± 0.0014 | -0.0085 ± 0.0035 | 0 ± 0.018 | -0.0155 ± 0.012 | -0.0245 ± 0.025 | 0.004 ± 0.0085 | 0.0205 ± 0.016 | 0.029 ± 0.0042 | 0.0115 ± 0.012 | -0.018 ± 0.0085 | 0.002 ± 0.0028 | -0.0045 ± 0.0035 | -0.002 ± 0.0057
MyoF:TIMP-1 | 0.018 ± 0.011 | 0.0085 ± 0.039 | -0.019 ± 0.0057 | 0.01 ± 0.035 | 0.001 ± 0.0085 | -0.0285 ± 0.00071 | -0.0085 ± 0.013 | 0.0535 ± 0.037 | 0.006 ± 0.0099 | 0.0035 ± 0.016 | 0.004 ± 0.0014 | -0.037 ± 0.014 | -0.0445 ± 0.016 | -0.0415 ± 0.04 | -0.0725 ± 0.044 | -0.041 ± 0.05 | -0.0385 ± 0.06 | -0.039 ± 0.065
SAg:CCL2/MCP-1 | -0.01 ± 0.0085 | 0.011 ± 0.058 | -0.0125 ± 0.0035 | -0.0175 ± 0.012 | 0.0195 ± 0.053 | -0.003 ± 0.0042 | -0.0005 ± 0.016 | -0.0055 ± 0.0064 | 0.0135 ± 0.0035 | -0.018 ± 0.0042 | 0.0035 ± 0.029 | 0.0175 ± 0.022 | -0.014 ± 0.016 | 0.043 ± 0.0085 | 0.0825 ± 0.021 | -0.012 | -0.002 ± 0.011 | -0.016 ± 0.0099
SAg:CD38 | -0.0175 ± 0.13 | 0.038 ± 0.082 | -0.0345 ± 0.037 | -0.0265 ± 0.04 | -0.032 ± 0.028 | -0.0125 ± 0.026 | 0.001 ± 0.0071 | -0.019 ± 0.0085 | -0.0015 ± 0.039 | 0.0035 ± 0.0092 | 0.0145 ± 0.005 | -0.018 ± 0.02 | -0.041 ± 0.03 | 0.005 ± 0.035 | -0.071 ± 0.028 | -0.02 ± 0.034 | -0.03 ± 0.025 | -0.0275 ± 0.046
SAg:CD40 | -0.0045 ± 0.021 | -0.0045 ± 0.081 | -0.0145 ± 0.033 | 0.0055 ± 0.013 | 0.002 ± 0.018 | -0.006 ± 0.058 | -0.005 ± 0.04 | -0.038 ± 0.014 | 0.002 ± 0.0071 | -0.003 ± 0.0071 | -0.012 ± 0.0014 | -0.0185 ± 0.032 | -0.042 ± 0.025 | -0.103 ± 0.055 | -0.212 ± 0.055 | -0.0285 ± 0.03 | -0.011 ± 0.044 | -0.0215 ± 0.04
SAg:CD62E/E-Selectin | -0.028 ± 0.0071 | -0.0615 ± 0.032 | -0.006 ± 0.018 | -0.0075 ± 0.00071 | 0.009 ± 0.0042 | 0 ± 0.011 | 0.0045 ± 0.013 | -0.006 ± 0.0042 | 0.02 ± 0.05 | -0.0115 ± 0.0035 | -0.0035 ± 0.019 | -0.0105 ± 0.0064 | 0.026 ± 0.0085 | 0.0755 ± 0.04 | 0.138 ± 0.036 | -0.0415 ± 0.039 | -0.0015 ± 0.0035 | -0.0135 ± 0.00071
SAg:CD69 | -0.0375 ± 0.0092 | -0.0735 ± 0.033 | -0.0095 ± 0.013 | -0.025 ± 0.0085 | -0.008 ± 0.0042 | -0.0105 ± 0.0035 | 0.013 ± 0.0085 | 0.002 ± 0.0071 | -0.0215 ± 0.0064 | -0.0105 ± 0.0064 | -0.0195 ± 0.0035 | 0.007 ± 0.011 | -0.0425 ± 0.015 | -0.0215 ± 0.00071 | -0.111 ± 0.0042 | -0.039 ± 0.042 | -0.0215 ± 0.023 | -0.024 ± 0.048
lMphg:CCL3/MIP-1alpha | 0.032 ± 0.031 | 0.0655 ± 0.026 | 0.0025 ± 0.057 | -0.0015 ± 0.06 | 0 ± 0.045 | -0.031 ± 0.018 | -0.0285 ± 0.016 | -0.0125 ± 0.016 | -0.0035 ± 0.053 | -0.004 ± 0.021 | -0.001 ± 0.017 | -0.008 ± 0.025 | 0.0015 ± 0.012 | 0.0195 ± 0.047 | 0.0425 ± 0.0035 | 0.03 ± 0.072 | -0.0125 ± 0.023 | 0.023 ± 0.034
lMphg:CD62E/E-Selectin | 0.011 ± 0.052 | 0.018 ± 0.027 | -0.0115 ± 0.021 | -0.009 ± 0.03 | -0.011 ± 0.0028 | -0.0045 ± 0.012 | -0.002 ± 0.0099 | 0.0205 ± 0.0035 | -0.0175 ± 0.013 | -0.0205 ± 0.0035 | -0.028 ± 0.014 | -0.011 ± 0.0014 | -0.0265 ± 0.028 | 0.0135 ± 0.018 | 0.0205 ± 0.021 | 0.002 ± 0.0057 | -0.0215 ± 0.0092 | 0.0055 ± 0.025
lMphg:CD69 | -0.067 ± 0.047 | -0.0985 ± 0.07 | -0.005 | -0.021 ± 0.016 | -0.028 ± 0.018 | -0.0265 ± 0.022 | -0.021 ± 0.035 | 0.0235 ± 0.049 | -0.0075 ± 0.036 | -0.0125 ± 0.029 | -0.0175 ± 0.032 | -0.001 ± 0.014 | -0.022 ± 0.052 | -0.0095 ± 0.032 | -0.084 ± 0.011 | -0.046 ± 0.027 | -0.0425 ± 0.025 | -0.027 ± 0.0071
lMphg:CXCL8/IL-8 | 0.135 | 0.211 ± 0.014 | 0.012 ± 0.041 | 0.005 ± 0.02 | 0.027 ± 0.014 | -0.0225 ± 0.0021 | -0.006 ± 0.0028 | 0.0415 ± 0.054 | 0.0275 ± 0.0078 | 0.0145 ± 0.013 | 0.0335 ± 0.011 | 0.0185 ± 0.032 | 0.0015 ± 0.005 | 0.042 ± 0.0071 | 0.131 ± 0.013 | 0.014 ± 0.021 | -0.0215 ± 0.016 | 0.0185 ± 0.06
lMphg:IL-1alpha | 0.0435 ± 0.035 | 0.118 ± 0.0021 | 0.0035 ± 0.047 | -0.0325 ± 0.047 | -0.017 ± 0.048 | -0.0055 ± 0.037 | 0.0095 ± 0.016 | -0.0025 ± 0.012 | 0.01 ± 0.013 | -0.0025 ± 0.005 | 0.0185 ± 0.019 | 0.0345 ± 0.021 | -0.002 ± 0.028 | 0.032 ± 0.013 | 0.0505 ± 0.03 | 0.005 ± 0.02 | 0.015 ± 0.027 | 0.029 ± 0.061
lMphg:M-CSF | -0.0325 ± 0.042 | -0.0335 ± 0.035 | 0.004 ± 0.0071 | 0.004 ± 0.017 | 0.018 ± 0.0014 | -0.0105 ± 0.0064 | -0.021 ± 0.014 | -0.015 ± 0.025 | -0.006 ± 0.03 | -0.03 ± 0.016 | -0.0335 ± 0.00071 | -0.0215 ± 0.0035 | -0.0255 ± 0.03 | -0.013 ± 0.021 | 0.0255 ± 0.028 | -0.008 ± 0.0057 | -0.009 ± 0.0071 | 0.006 ± 0.0014
lMphg:SRB-Mphg | -0.011 ± 0.0057 | 0.006 ± 0.017 | 0.005 ± 0.0085 | -0.005 ± 0.014 | -0.012 ± 0.017 | 0.0005 ± 0.013 | 0.004 ± 0.0085 | 0.0075 ± 0.015 | 0.0065 ± 0.005 | -0.004 | 0.004 ± 0.0042 | -0.067 ± 0.12 | -0.0945 ± 0.083 | -0.119 ± 0.053 | -0.057 ± 0.13 | 0.0005 ± 0.0092 | 0.0035 ± 0.015 | 0.007 ± 0.013
lMphg:sIL-10 | -0.0355 ± 0.0035 | -0.102 ± 0.04 | -0.0615 ± 0.044 | -0.0475 ± 0.00071 | 0.0505 ± 0.073 | -0.055 ± 0.064 | -0.048 ± 0.017 | -0.082 ± 0.0071 | -0.0605 ± 0.096 | -0.0755 ± 0.11 | 0.0005 ± 0.063 | -0.0235 ± 0.00071 | -0.122 ± 0.019 | -0.0595 ± 0.00071 | -0.269 ± 0.06 | -0.0035 ± 0.0092 | -0.0155 ± 0.016 | -0.0135 ± 0.0021
